Data published in ChEMBL document CHEMBL5608186, “Design, synthesis and structure-activity relationships of novel non-ketolides: 9-Oxime clarithromycin featured with seven-to thirteen-atom-length diamine linkers at 3-OH” (Eur J Med Chem, 2024).
pIC50: −log10 of the molar value. In brackets after ≈: the same amount, converted by molar mass.

Assays:
[1] = Metabolic stability in rat liver microsomes assessed as unchanged drug at 1 uM incubated upto 60 mins in presence of NADPH by LC-MS/MS analysis; type: ADME, Microsome; details: read-out: Stability
[2] = Metabolic stability in human liver microsomes assessed as unchanged drug at 1 uM incubated upto 60 mins in presence of NADPH by LC-MS/MS analysis; type: ADME, Microsome; details: read-out: Stability
[3] = Metabolic stability in human liver microsomes assessed as half life at 1 uM incubated upto 60 mins in presence of NADPH by LC-MS/MS analysis; type: ADME, Microsome
[4] = Metabolic stability in human liver microsomes assessed as intrinsic clearance in liver at 1 uM incubated upto 60 mins in presence of NADPH by LC-MS/MS analysis; type: ADME, Microsome; details: read-out: CLH
Staphylococcus aureus [5] = assay: Bactericidal activity against methicillin-resistant Staphylococcus aureus PU 20 harboring c-ermA gene incubated for 16 to 20 hrs by CLSI based broth microdilution method; type: functional; details: time 16-20 hrs
Staphylococcus aureus [6] = assay: Antibacterial activity against methicillin-resistant Staphylococcus aureus PU 20 harboring c-ermA gene incubated for 16 to 20 hrs by CLSI based broth microdilution method; type: functional; details: time 16-20 hrs
Staphylococcus aureus [7] = assay: Selectivity ratio of MBC for methicillin-resistant Staphylococcus aureus PU 32 harboring i-ermA gene to MIC for methicillin-resistant Staphylococcus aureus PU 32 harboring i-ermA gene; type: functional
Staphylococcus aureus [8] = assay: Bactericidal activity against methicillin-resistant Staphylococcus aureus PU 32 harboring i-ermA gene incubated for 16 to 20 hrs by CLSI based broth microdilution method; type: functional; details: time 16-20 hrs
Staphylococcus aureus [9] = assay: Antibacterial activity against methicillin-resistant Staphylococcus aureus PU 32 harboring i-ermA gene incubated for 16 to 20 hrs by CLSI based broth microdilution method; type: functional; details: time 16-20 hrs
Streptococcus pyogenes [10] = assay: Selectivity ratio of MBC for Streptococcus pyogenes 01-968 harboring i-ermB gene to MIC for Streptococcus pyogenes 01-968 harboring i-ermB gene; type: functional
Streptococcus pyogenes [11] = assay: Bactericidal activity against Streptococcus pyogenes 01-968 harboring i-ermB gene incubated for 16 to 20 hrs by CLSI based broth microdilution method; type: functional; details: time 16-20 hrs
Streptococcus pyogenes [12] = assay: Antibacterial activity against Streptococcus pyogenes 01-968 harboring i-ermB gene incubated for 16 to 20 hrs by CLSI based broth microdilution method; type: functional; details: time 16-20 hrs
Haemophilus influenzae [13] = assay: Selectivity ratio of MBC for Haemophilus influenzae ATCC 49247 to MIC for Haemophilus influenzae ATCC 49247; type: functional
Haemophilus influenzae [14] = assay: Bactericidal activity against Haemophilus influenzae ATCC 49247 incubated for 16 to 20 hrs by CLSI based broth microdilution method; type: functional; details: time 16-20 hrs
Haemophilus influenzae [15] = assay: Antibacterial activity against Haemophilus influenzae ATCC 49247 incubated for 16 to 20 hrs by CLSI based broth microdilution method; type: functional; details: time 16-20 hrs
Streptococcus pneumoniae [16] = assay: Selectivity ratio of MBC for Streptococcus pneumoniae 07P390 harboring c-erm gene to MIC for Streptococcus pneumoniae 07P390 harboring c-erm gene; type: functional
Streptococcus pneumoniae [17] = assay: Bactericidal activity against Streptococcus pneumoniae 07P390 harboring c-erm gene incubated for 16 to 20 hrs by CLSI based broth microdilution method; type: functional; details: time 16-20 hrs
Streptococcus pneumoniae [18] = assay: Antibacterial activity against Streptococcus pneumoniae 07P390 harboring c-erm gene incubated for 16 to 20 hrs by CLSI based broth microdilution method; type: functional; details: time 16-20 hrs
Streptococcus pneumoniae [19] = assay: Selectivity ratio of MBC for Streptococcus pneumoniae PU 09 harboring mef gene to MIC for Streptococcus pneumoniae PU 09 harboring mef gene; type: functional
Streptococcus pneumoniae [20] = assay: Bactericidal activity against Streptococcus pneumoniae PU 09 harboring mef gene incubated for 16 to 20 hrs by CLSI based broth microdilution method; type: functional; details: time 16-20 hrs
Streptococcus pneumoniae [21] = assay: Selectivity ratio of MBC for Streptococcus pneumoniae ATCC 49619 to MIC for Streptococcus pneumoniae ATCC 49619; type: functional
Streptococcus pneumoniae [22] = assay: Antibacterial activity against Streptococcus pneumoniae PU 09 harboring mef gene incubated for 16 to 20 hrs by CLSI based broth microdilution method; type: functional; details: time 16-20 hrs
Streptococcus pneumoniae [23] = assay: Bactericidal activity against Streptococcus pneumoniae ATCC 49619 incubated for 16 to 20 hrs by CLSI based broth microdilution method; type: functional; details: time 16-20 hrs
Streptococcus pneumoniae [24] = assay: Antibacterial activity against Streptococcus pneumoniae ATCC 49619 incubated for 16 to 20 hrs by CLSI based broth microdilution method; type: functional; details: time 16-20 hrs
Staphylococcus aureus [25] = assay: Selectivity ratio of MBC for methicillin-resistant Staphylococcus aureus PU 20 harboring c-ermA gene to MIC for methicillin-resistant Staphylococcus aureus PU 20 harboring c-ermA gene; type: functional
Escherichia coli [26] = assay: Antibacterial activity against wild-type Escherichia coli SQ110 DTC incubated for 16 to 20 hrs by CLSI based broth microdilution method; type: functional; details: time 16-20 hrs
Escherichia coli [27] = assay: Antibacterial activity against Escherichia coli SQ110 DTC harboring 23S rRNA A2058G mutant incubated for 16 to 20 hrs by CLSI based broth microdilution method; type: functional; details: time 16-20 hrs
Escherichia coli [28] = assay: Selectivity ratio of MIC for Escherichia coli SQ110 DTC harboring 23S rRNA A2058G mutant to MIC for wild-type Escherichia coli SQ110 DTC; type: functional
Escherichia coli [29] = assay: Antibacterial activity against Escherichia coli SQ110 DTC harboring Gyr A Ser83Leu mutant incubated for 16 to 20 hrs by CLSI based broth microdilution method; type: functional; details: time 16-20 hrs
Escherichia coli [30] = assay: Selectivity ratio of MIC for Escherichia coli SQ110 DTC harboring Gyr A Ser83Leu mutant to MIC for wild-type Escherichia coli SQ110 DTC; type: functional
Escherichia coli [31] = assay: Antibacterial activity against Escherichia coli SQ110 DTC harboring 23S rRNA A2058G/Gyr A Ser83Leu mutant incubated for 16 to 20 hrs by CLSI based broth microdilution method; type: functional; details: time 16-20 hrs
Escherichia coli [32] = assay: Selectivity ratio of MIC for Escherichia coli SQ110 DTC harboring 23S rRNA A2058G/Gyr A Ser83Leu mutant to MIC for wild-type Escherichia coli SQ110 DTC; type: functional
[33] = Inhibition of Escherichia coli DNA supercoiling assessed as reduction in protein synthesis by firefly luciferase gene assay; type: functional
DNA gyrase = DNA gyrase (Escherichia coli, UniProt P0AES4+P0AES6); assay: Inhibition of Escherichia coli DNA gyrase using pBR322 DNA as substrate incubated for 30 mins by electrophoresis; type: protein-complex assay
[34] = Metabolic stability in Escherichia coli SQ110 DTC assessed as unchanged drug at 5 to 10 times MIC measured after 60 mins by LC-MS/MS analysis; type: ADME; details: Escherichia coli SQ110 DTC cells, read-out: Stability
HEK-293T = assay: Cytotoxicity against HEK293T cells assessed as cell viability at 5 to 50 uM incubated for 48 hrs by CCK8 assay; type: toxicity, cell-based; details: human, dose 5-50 µM
HepG2 = assay: Cytotoxicity against human HepG2 cells assessed as cell viability at 5 to 50 uM incubated for 48 hrs by CCK8 assay; type: toxicity, cell-based; details: hepg2, 48 h, dose 5-50 µM

Compound | remaining at 1 h, 1 µM [1] | remaining at 1 h, 1 µM [2] | half-life at 1 µM [3] | CLint scaled at 1 µM [4] | MBC (Staphylococcus aureus [5]) | MIC (Staphylococcus aureus [6]) | Selectivity ratio (Staphylococcus aureus [7]) | MBC (Staphylococcus aureus [8]) | MIC (Staphylococcus aureus [9]) | Selectivity ratio (Streptococcus pyogenes [10]) | MBC (Streptococcus pyogenes [11]) | MIC (Streptococcus pyogenes [12]) | Selectivity ratio (Haemophilus influenzae [13]) | MBC (Haemophilus influenzae [14]) | MIC (Haemophilus influenzae [15]) | Selectivity ratio (Streptococcus pneumoniae [16]) | MBC (Streptococcus pneumoniae [17]) | MIC (Streptococcus pneumoniae [18]) | MBC (Streptococcus pneumoniae [20]) | Selectivity ratio (Streptococcus pneumoniae [21]) | further results
CCOc1ccc2ccc(=O)oc2c1 | 1% | 14.1% | 21.2 min | 58.7 mL/min/kg | – | – | – | – | – | – | – | – | – | – | – | – | – | – | – | – | –
CC[C@H]1OC(=O)[C@H](C)[C@@H](OC(=O)CCN2CCN(c3cc4c(cc3F)c(=O)c(C(=O)O)cn4C3CC3)CC2)[C@H](C)[C@@H](O[C@@H]2O[C@H](C)C[C@H](N(C)C)[C@H]2O)[C@](C)(OC)C[C@@H](C)/C(=N\OCCCc2cncc(C(=O)NC)c2)[C@H](C)[C@H]2OC(=O)O[C@@]21C | – | – | – | – | > 256 µg/mL | 64 µg/mL (≈ 53.7 µM) | >4 | > 256 µg/mL | 64 µg/mL (≈ 53.7 µM) | >8 | > 32 µg/mL | 4 µg/mL (≈ 3.35 µM) | 1 | 2 µg/mL (≈ 1.68 µM) | 2 µg/mL (≈ 1.68 µM) | 8 | 16 µg/mL (≈ 13.4 µM) | 2 µg/mL (≈ 1.68 µM) | 0.12 µg/mL (≈ 0.101 µM) | 2 | Selectivity ratio (Streptococcus pneumoniae [19]): 4; MIC (Streptococcus pneumoniae [22]): 0.03 µg/mL (≈ 0.0252 µM); MBC (Streptococcus pneumoniae [23]): 0.03 µg/mL (≈ 0.0252 µM); MIC (Streptococcus pneumoniae [24]): 0.016 µg/mL (≈ 0.0134 µM); Selectivity ratio (Staphylococcus aureus [25]): >4
CC[C@H]1OC(=O)[C@H](C)[C@@H](OC(=O)CCNCCCCCNc2cc3c(cc2F)c(=O)c(C(=O)O)cn3C2CC2)[C@H](C)[C@@H](O[C@@H]2O[C@H](C)C[C@H](N(C)C)[C@H]2O)[C@](C)(OC)C[C@@H](C)/C(=N\OC)[C@H](C)[C@H]2OC(=O)O[C@@]21C | 98.4% | 42% | 57.3 min | 21.8 mL/min/kg | > 256 µg/mL | 128 µg/mL (≈ 122 µM) | 8 | 8 µg/mL (≈ 7.65 µM) | 1 µg/mL (≈ 0.956 µM) | >8 | > 0.062 µg/mL | ≤ 0.008 µg/mL | 1 | 256 µg/mL (≈ 245 µM) | 256 µg/mL (≈ 245 µM) | 2 | 2 µg/mL (≈ 1.91 µM) | 1 µg/mL (≈ 0.956 µM) | 1 µg/mL (≈ 0.956 µM) | 2 | Selectivity ratio (Streptococcus pneumoniae [19]): 2; MIC (Streptococcus pneumoniae [22]): 0.5 µg/mL (≈ 0.478 µM); MBC (Streptococcus pneumoniae [23]): 0.125 µg/mL (≈ 0.119 µM); MIC (Streptococcus pneumoniae [24]): 0.062 µg/mL (≈ 0.0593 µM)
CC[C@H]1OC(=O)[C@H](C)[C@@H](OC(=O)CCNCCCCNc2cc3c(cc2F)c(=O)c(C(=O)O)cn3C2CC2)[C@H](C)[C@@H](O[C@@H]2O[C@H](C)C[C@H](N(C)C)[C@H]2O)[C@](C)(OC)C[C@@H](C)/C(=N\OCC#Cc2cncc(C(=O)NC)c2)[C@H](C)[C@H]2OC(=O)O[C@@]21C | 70.6% | 91.3% | 459 min | 2.7 mL/min/kg | > 256 µg/mL | > 256 µg/mL | 1 | 32 µg/mL (≈ 26.9 µM) | 32 µg/mL (≈ 26.9 µM) | >8 | > 0.5 µg/mL | 0.06 µg/mL (≈ 0.0504 µM) | 2 | 4 µg/mL (≈ 3.36 µM) | 2 µg/mL (≈ 1.68 µM) | 8 | 1 µg/mL (≈ 0.84 µM) | 0.12 µg/mL (≈ 0.101 µM) | 0.008 µg/mL (≈ 0.00672 µM) | >=1 | MIC (Streptococcus pneumoniae [22]): ≤ 0.008 µg/mL; MBC (Streptococcus pneumoniae [23]): 0.008 µg/mL (≈ 0.00672 µM); MIC (Streptococcus pneumoniae [24]): ≤ 0.008 µg/mL; MIC (Escherichia coli [26]): 4 µg/mL (≈ 3.36 µM); MIC (Escherichia coli [27]): 4 µg/mL (≈ 3.36 µM); Selectivity ratio (Escherichia coli [28]): 1; MIC (Escherichia coli [29]): 8 µg/mL (≈ 6.72 µM); Selectivity ratio (Escherichia coli [30]): 2; MIC (Escherichia coli [31]): > 128 µg/mL; Selectivity ratio (Escherichia coli [32]): >32; pIC50 [33]: 6.13; pIC50 (DNA gyrase): 4.92; remaining at 1 h [34]: 84.3%; Activity (HEK-293T): Non-Toxic; Activity (HepG2): Non-Toxic
CC[C@H]1OC(=O)[C@H](C)[C@@H](O[C@H]2C[C@@](C)(OC)[C@@H](O)[C@H](C)O2)[C@H](C)[C@@H](O[C@@H]2O[C@H](C)C[C@H](N(C)C)[C@H]2O)[C@](C)(O)C[C@@H](C)C(=O)[C@H](C)[C@@H](O)[C@]1(C)O [ERYTHROMYCIN] | – | – | – | – | – | – | – | – | – | – | – | – | – | – | – | – | – | – | – | – | MIC (Escherichia coli [26]): 2 µg/mL (≈ 2.73 µM); MIC (Escherichia coli [27]): > 128 µg/mL; Selectivity ratio (Escherichia coli [28]): >64; MIC (Escherichia coli [29]): 2 µg/mL (≈ 2.73 µM); Selectivity ratio (Escherichia coli [30]): 1; MIC (Escherichia coli [31]): > 128 µg/mL; Selectivity ratio (Escherichia coli [32]): >64; pIC50 [33]: 5.96
